Data reported in paper PMC5735336, “Microwave-assisted synthesis and antitumor evaluation of a new series of thiazolylcoumarin derivatives” (EXCLI Journal, 2017).

Columns and labels:
EAC cells = experiment: In vivo antitumor screening against EAC cells in mice; conditions: 0.5 mg/mouse; for Hb / RBCs Count / WBCs Count: blood profile of mice inoculated with EAC cells; for Viable tumor cell count/100 μL / Tumor volume / Mean survival time / % Increase in lifespan: mice inoculated with EAC cells; for Viable tumor cell count/100 μL: after five days of treatment, trypan blue; for Tumor volume: ascitic fluid; for Mean survival time: treatment for nine days; for % Increase in lifespan: %ILS = [(MST treated/MST positive control)-1] x 100
Procedure: In vivo antitumor assessment of 5f, 5h, 5m and 5r was performed according to the literature method (Oberling and Guerin, 1954[48]; Sheeja et al., 1997[64]; Clarkson and Burchenal, 1965[9]).
Results of in vivo antitumor screening of compounds 5f, 5h, 5m and 5r (showing the highest in vitro antitumor activity) against EAC cells in mice are listed in Tables 2-4(Tab. 2)(Tab. 3)(Tab. 4). The % increase in lifespan of EAC inoculated mice (%ILS), the decrease in viable tumor cell count and the retrieval of normal blood profile are three substantial measures used for estimation of antitumor efficacy of the selected compounds and 5-fluorouracil (5-FU) (standard agent) (Oberling and Guerin, 1954[48]; Sheeja et al., 1997[64]; Clarkson and Burchenal, 1965[9]). The mean survival time (MST) of each group was rated and %ILS of mice inoculated with EAC cells was determined adopting the equation: %ILS = [(MST of treated group/ MST of positive control group)-1] x 100, where MST = days of the mouse in a group/total no. of mice. […] Also, this compound produced considerable decrease in viable tumor cell count (Table 3(Tab. 3)). […]
In vivo antitumor screening
Swiss male albino mice (wei ghing 20-25 g) were utilized. The y were dwelled in microlon boxes at temperature 25 ± 2 °C with a regular 12 hrs light/dark cycl e, in addition, food and water intake were permitted.
EAC cells were acquir ed from the NCI, Cairo, Egypt.
Mice were divided into 7 groups (n= 6).
Group 1: Negative contr ol (no EAC cells) - recei ved normal saline.
Group 2: Positive control (EAC cells) - receiv ed normal saline.
Group 3: EAC cells - received compound 5f (0.5 mg/mouse).
Group 4: EAC cells - received compound 5h (0.5 mg/mouse).
Group 5: EAC cells - received compound 5m (0.5 mg/mouse).
Group 6: EAC cells - received compound 5r (0.5 mg/mouse).
Group 7: EAC cells - received 5-fluorouracil (0.5 mg/mouse).
2 x 10^6 cells were inoc ulated intraperitoneall y t o each mouse in all groups ex cept the neg-ative control group. The tr eatment began 24 hrs after inoculation (0.5 mg/mouse) and con-tinued for nine days (Oberlin g and Gu erin, 19 54; Sheeja et al., 1997; Clarkson and Burch enal, […]
Determination of tumor volume
The ascetic fluid was gath ered from the peritoneal cavit y of dissected mice. It was th en centrifuged for 5 min and the tumor cell volume was set.
Determination of viable tumor cell count after five days of treatment
EAC cells (100 μ L, from three mice of each group) were obtained and diluted to twent y-fold with saline. The cells were st ained with tr ypan blue, t he dead cells are stained, whereas […]
The number of viable cells was counted. […]
Clarkson BD, Burchenal JH. Preliminary screening of antineoplastic drugs. Prog Clin Cancer. 1965;1:625-9. […]
(§1) Oberling C, Gu erin M. The role of viruses in the production of cancer . Ad v Cancer Res. 1954;2:353-423.
(§2) Sheeja KR, Kuttan G, Kuttan R. C ytotox ic and antitumour activit y of Berberin. Amala Res Bull. 1997;17:73-6.

[1] = test system: kidney fibroblast (COS-7) cancer cell line; experiment: In vitro antitumor screening, MTT assay, COS-7; format: cell-based; conditions: Chlorocebus aethiops, 50% inhibition of cell viability, COS-7 cell line
Procedure: (§3) The new analogs were tested for in vitro antitumor efficacy adopting the reported procedure (Mosmann, 1983[46]; Denizot and Lang, 1986[13]; Gerlier and Thomasset, 1986[21]).
(§4) In vitro antitumor screening of compounds 5a-t was carried out on cervical (Hela) and kidney fibroblast (COS-7) cancer cell lines in accord to MTT assay (Mosmann, 1983[46]; Denizot and Lang, 1986[13]; Gerlier and Thomasset, 1986[21]) and utilizing doxorubicin as a standard drug. The concentrations of the compounds that cause 50% inhibition of cell viability (IC50, µM) were calculated. […]
In vitro antitumor screening […]
(§5) HCT-116 (colon) and MCF-7 (breast) cancer cell lines adopting MTT assa y (Mosmann, 1983; Denizot and Lang, 1986; Gerlier and Thomasset, 1986) and usin g 5- fluorouracil as a reference antitumor agent. Cells were cultured in Roswell Park Memorial Institute (RPM I) 1640 medium wit h 10% fetal bovine serum, penicillin (100 units/mL) and streptomycin (100 µg/mL) at 37 ° C in an atmosphere of 5% CO 2 were added.
(§6) Cells were placed in 96-multiwell microtiter plates (10^4 cells/well), for 24 h rs at 37 °C and in an atmosphere of 5% CO2 before tr eatment with the compounds to allow attachment of the cells to the wall of the plate. The tested compounds were dissolved in DMSO and diluted with phosphate buffer saline (PBS) to obtain different concentrations. Tested compounds of dif-ferent concentrations were added to each well and cells were incubated with the compounds for 48 hrs at 37 °C and in an atmosphere of 5% CO2. All tests were performed in triplicates.
(§7) The treated cells were wash ed with PBS and 100 µL of 3 -(4,5-dimeth ylthiazol-2-yl )-2,5-diphe-n yltetrazolium bromide solution (MTT) (5 mg/m L MTT st ock in PBS diluted to 1 mg/ mL with 10% RPMI-1640 medium) was added. The 9 6 -multiwell plates were read b y microarra y read er Perkinelmer vector 3V multilabel counter model 1420 (Perkinelmer, Boston, MA) for optical densit y at 490 nm (Mosmann, 1983; Denizot and Lang, 1986; Gerlier and Thomasset, 1986).
(§8) The relative percenta ge cell viabilit y was calculate d from the following equation: […]
(§9) The relation between surviving fraction and drug concentration is plotted to get the survival curve for HepG2, HCT-116 and M CF-7 cancer cell lines . […]
(§10) Denizot F, Lang R. Rapid colorimetric assa y for cell growth and survival. Modifications to the tetrazolium dye procedure giving improved sensitivity an d reliability. J Immunol Methods. 1986;89:271-7.
(§11) Gerlier D, Thomasset T. Use of MTT colorimetric assa y to measure cell activation. J Immunol Methods. 1986; […]
(§12) Mosmann T. Rapid colorimetric assa y for cellular growth and survival: Application to proliferation and cytotox- […]
as §1, §2

[2] = In vitro cytotoxicity testing, MTT assay, W138 normal cells; format: cell-based; conditions: W138 normal lung fibroblast cells, human normal lung fibroblast W138, read-out: IC50 W138 normal cell line
Procedure: In vitro cytotoxic activity of 5f, 5h, 5m and 5r was evaluated in accord to the reported method (Mosmann, 1983[46]; Denizot and Lang, 1986[13]; Gerlier and Thomasset, 1986[21]).
The effective antitumor compounds, 5f, 5h, 5m and 5r were further assessed for in vitro cytotoxicity toward human normal lung fibroblast (W138) cell line (Mosmann, 1983[46]; Denizot and Lang, 1986[13]; Gerlier and Thomasset, 1986[21]). IC50 values (µM) of the tested compounds and 5-FU (reference cytotoxic agent) were calculated. […]
(§13) In vitro antitumor screening
as §5, with “Compounds 5a-t were screened for in vitro antitumor activity against HepG2 (liver), HCT-116” for “HCT-116”
as §6, §7, §8, §9
In vitro cytotoxicity testing […]
J Immunol Methods. 1986;89:271-7.
as §11, §12, §1, §2

[3] = test system: cervical (Hela) cancer cell line; experiment: In vitro antitumor screening, MTT assay, Hela; format: cell-based; conditions: Homo sapiens, 50% inhibition of cell viability
Procedure: as §3, §4, §13
as §5, with “Compounds 5a-t were screened for in vitro antitumor activity against HepG2 (liver), HCT-116” for “HCT-116”
as §6, §7, §8, §9, §10, §11, §12, §1, §2

O=c1oc2ccccc2cc1-c1csc(NN=Cc2c3ccccc3c(Cl)c3ccccc23)n1 [5r, 3-(2-(2-((10-Chloroanthracen-9-yl)-methylidene)hydrazino)thiazol-4-yl)-2H-chromen-2-one]
Hb (EAC cells): 13.10 g/dL
RBCs Count (EAC cells): 5.55 10^6/mm^3
WBCs Count (EAC cells): 7.45 10^3/mm^3
Viable tumor cell count/100 μL (EAC cells): 21.94x10^6 /100 μL
Tumor volume (EAC cells): 2.11 mL
Mean survival time (EAC cells): 45.5 days
% Increase in lifespan (EAC cells): 213.8%
IC50 [1]: 1.66 µM
IC50 at 48 h [2]: 24.3 µM
IC50 [3]: 1.29 µM

O=c1oc2ccccc2cc1-c1csc(NN=Cc2ccc[nH]2)n1 [5m, 3-(2-(2-((1H-Pyrrol-2-yl)methylidene)hydrazino)thiazol-4-yl)-2H-chromen-2-one]
Hb (EAC cells): 11.43 g/dL
RBCs Count (EAC cells): 4.39 10^6/mm^3
WBCs Count (EAC cells): 9.61 10^3/mm^3
Viable tumor cell count/100 μL (EAC cells): 40.52x10^6 /100 μL
Tumor volume (EAC cells): 3.85 mL
Mean survival time (EAC cells): 37.0 days
% Increase in lifespan (EAC cells): 155.2%
IC50 [1]: 12.5 µM
IC50 at 48 h [2]: 29.5 µM
IC50 [3]: 6.25 µM

O=c1oc2ccccc2cc1-c1csc(NN=Cc2cc([N+](=O)[O-])ccc2Cl)n1 [5h, 3-(2-(2-(2-Chloro-5-nitrobenzylidene)hydrazino)thiazol-4-yl)-2H-chromen-2-one]
Hb (EAC cells): 11.97 g/dL
RBCs Count (EAC cells): 4.92 10^6/mm^3
WBCs Count (EAC cells): 9.25 10^3/mm^3
Viable tumor cell count/100 μL (EAC cells): 32.57x10^6 /100 μL
Tumor volume (EAC cells): 3.12 mL
Mean survival time (EAC cells): 39.3 days
% Increase in lifespan (EAC cells): 171.0%
IC50 [1]: 1.96 µM
IC50 at 48 h [2]: 19.8 µM
IC50 [3]: 1.42 µM

O=c1[nH]cc(F)c(=O)[nH]1 [5-Fluorouracil, 5-fluorouracil, reference compound]
Hb (EAC cells): 12.96 g/dL
RBCs Count (EAC cells): 5.21 10^6/mm^3
WBCs Count (EAC cells): 8.86 10^3/mm^3
Viable tumor cell count/100 μL (EAC cells): 20.17x10^6 /100 μL
Tumor volume (EAC cells): 1.60 mL
Mean survival time (EAC cells): 49.0 days
% Increase in lifespan (EAC cells): 237.9%
IC50 at 48 h [2]: 5.73 µM

O=c1oc2ccccc2cc1-c1csc(NN=Cc2c(Cl)cccc2Cl)n1 [5f, 3-(2-(2-(2,6-Dichlorobenzylidene)hydrazino)thiazol-4-yl)-2H-chromen-2-one]
Hb (EAC cells): 12.92 g/dL
RBCs Count (EAC cells): 5.14 10^6/mm^3
WBCs Count (EAC cells): 8.41 10^3/mm^3
Viable tumor cell count/100 μL (EAC cells): 25.83x10^6 /100 μL
Tumor volume (EAC cells): 2.62 mL
Mean survival time (EAC cells): 41.0 days
% Increase in lifespan (EAC cells): 182.7%
IC50 [1]: > 50 µM
IC50 at 48 h [2]: 36.2 µM
IC50 [3]: 1.9 µM
